Assay results reported in patent EP0391644B1, “Aryl-substituted rhodanine derivatives” (ELI LILLY AND COMPANY, priority 1989, dated 1990).

Columns and labels:
[1] = system: adjuvant-induced arthritis; test: Developing Adjuvant-Induced Arthritis Test in Rats; type: in vivo, male Lewis-Wistar rats; conditions: Rattus norvegicus, po, 720 h; 50 mg/kg P.O. x 29; AUC of uninjected paw volumes, Days 16 through 30; read-out: % Inhibition of Uninjected Paw Volume Inflammation
[2] = system: ischemia-induced brain damage in the hippocampal CA1 region; test: Stroke model in rats; type: in vivo, Male Wistar rats; conditions: mean ± standard error, scale 0 = no damage to 3 = severe damage of CA1 layer
Text: Strokes were produced in rats by occluding the four arteries that supply blood to the brain according to the following procedure. Male Wistar rats were anesthetized with Metofane and placed into a stereotaxic instrument. A longitudinal incision was made on the dorsal surface of the neck. The neck muscles were reflected to expose the dorsal surface of the spinal column. The two vertebral arteries were exposed where they pass through the first cervical vertebra. Both arteries were permanently occluded by the application of electrocautery. After coagulation of the vertebral arteries, the rat was removed from the stereotaxic instrument and the surgical wound was sutured. Two longitudinal incisions were then made on the ventral surface of the neck. The two common carotid arteries were exposed and dissected free from surrounding nerves and connective tissue. An atraumatic clasp, fabricated mainly from silicon rubber tubing, was placed around each carotid artery in a manner such that the vessel was not traumatized or occluded. The surgical wounds were then closed. The atraumatic clasps were designed in such a manner that they could be tightened to occlude the carotid arteries by pulling on a small silastic thread that was allowed to protrude from the wound. Circulation to the brain through the carotids could be restored by relieving the tension on the silastic threads. After the surgery, the rats were allowed to recover for 24 hours.
On the day of testing, compounds were suspended in 2% acacia and were administered orally at various times before stroke induction. Strokes (cerebral ischemia) were induced by tightening the clasps around the carotids for a period of 30 minutes. During this time, rats in which strokes had successfully been produced lost the righting reflex and became unresponsive to stimuli. After 30 minutes of ischemia, tension on the clasps was removed and blood flow to the brain restored. Rats were again treated with compounds on the morning after the stroke. On the third day after the stroke the animals received an overdose of barbituate anesthetic, and the brain was perfused in situ with 10% neutral, buffered formalin. After perfusion with amounts of formalin adequate to fix the brain, the brains were removed and stored in 10% formalin until histological sections could be prepared.
One of the areas of the brain that is most susceptible to ischemia induced damage both in the rat and the human is the CA1 pyramidal cell layer of the hippocampus. In animals that remain unresponsive for the 30 minute period of ischemia, the CA1 pyramidal cell layer is completely destroyed. This layer of cells was examined microscopically in histological sections prepared from the hippocampus. Brain damage was rated according to the following scale: 0 = no damage, completely intact cell layer 1 = mild damage, one-third of CA1 layer dead 2 = moderate damage, two-thirds of CA1 layer dead 3 = severe damage, complete destruction of CA1 layer
Damage in 10-12 sections from each brain was assessed in order to obtain an accurate estimate of damage. An average damage score was calculated for each treatment group. Scores from treated groups were compared statistically with scores from control groups which received only the vehicle (2% acacia) that was used to suspend the compounds. The level of significance was determined using Student's "t-test".

[3] = 100 mg/kg given orally as a suspension in 2% acacia

SMILES: CN1CSC(Cc2cc(C(C)(C)C)c(O)c(C(C)(C)C)c2)C1=O (stereo not drawn) [Example 11, 5-{[3,5-bis(1,1-dimethylethyl)-4-hydroxyphenyl]methyl}-3-methyl-4-thiazolidinone]
- inhibition in vivo at 50 mg/kg [1]: 19.7%
- Damage Score [2, 3]: 2.1 ± 0.3

SMILES: CN1CS(=O)(=O)C(=Cc2cc(C(C)(C)C)c(O)c(C(C)(C)C)c2)C1=O [Example 13, 5-{[3,5-bis(1,1-dimethylethyl)-4-hydroxyphenyl]methylene}-3-methyl-4-thiazolidinone, 1,1-dioxide]
- inhibition in vivo at 50 mg/kg [1]: 8.7%
- Damage Score [2, 3]: 2.1 ± 0.3

SMILES: Cc1cc(C=C2SCN(N(C)C)C2=O)cc(C(C)(C)C)c1O [Example 62, 5-{[3-(1,1-dimethylethyl)-4-hydroxy-5-methylphenyl]methylene}-3-dimethylamino-4-thiazolidinone]
- inhibition in vivo at 50 mg/kg [1]: 11.2%
- Damage Score [2, 3]: 1.2 ± 0.3 (p<0.05)

SMILES: COc1ccc(CN2CSC(=Cc3cc(C(C)(C)C)c(O)c(C(C)(C)C)c3)C2=O)cc1 [Example 36, 5-{[3,5-bis(1,1-dimethylethyl)-4-hydroxyphenyl]methylene}-3-[(4-methoxyphenyl)methyl]-4-thiazolidinone]
- Damage Score [2, 3]: 2.3 ± 0.4

SMILES: CC(=O)OCCN1CSC(=Cc2cc(C(C)(C)C)c(O)c(C(C)(C)C)c2)C1=O [Example 26, 5-{[3,5-bis(1,1-dimethylethyl)-4-hydroxyphenyl]-methylene}-3-[2-(acetyloxy)ethyl]-4-thiazolidinone]
- inhibition in vivo at 50 mg/kg [1]: 30.4%
- Damage Score [2, 3]: 1.9 ± 0.4

SMILES: CC(C)(C)c1cc(C=C2CCNC2=O)cc(C(C)(C)C)c1O [Example 69, 3-{[3,5-bis(1,1-dimethylethyl)-4-hydroxyphenyl]methylene}-2-pyrrolidinone]
- Damage Score ([2]; 50 mg/kg given orally as a suspension in 2% acacia): 0.98 ± 0.42 (p=0.037)

SMILES: CSCCN1CSC(=Cc2cc(C(C)(C)C)c(O)c(C(C)(C)C)c2)C1=O [Example 6, 5-{[3,5-bis(1,1-dimethylethyl)-4-hydroxyphenyl]methylene}-3-[2-(methylthio)ethyl]-4-thiazolidinone]
- Damage Score [2, 3]: 2.5 ± 0.2

SMILES: CC(C)(C)c1cc(C=C2SC(=O)NC2=O)cc(C(C)(C)C)c1O [Example 67, 5-{[3,5-bis(1,1-dimethylethyl)-4-hydroxyphenyl]methylene}-2,4-thiazolidinedione]
- Damage Score [2, 3]: 1.4 ± 0.3 (p<0.05)

SMILES: CN1CCC(=Cc2cc(C(C)(C)C)c(O)c(C(C)(C)C)c2)C1=O [Example 70, 3-{[3,5-bis(1,1-dimethylethyl)-4-hydroxyphenyl]-methylene}-1-methyl-2-pyrrolidinone]
- Damage Score [2, 3]: 0.7 ± 0.4 (p=0.039)

SMILES: CC(=C1SCN(C)C1=O)c1cc(C(C)(C)C)c(O)c(C(C)(C)C)c1 [Example 25, 5-{[3,5-bis(1,1-dimethylethyl)-4-hydroxyphenyl]methylmethylene}-3-methyl-4-thiazolidinone]
- inhibition in vivo at 50 mg/kg [1]: 8.5%

SMILES: CNCCCN1CSC(=Cc2cc(C(C)(C)C)c(O)c(C(C)(C)C)c2)C1=O [Example 34, 5-{[3,5-bis(1,1-dimethylethyl)-4-hydroxyphenyl]methylene}-3-[3-(methylamino)propyl]-4-thiazolidinone]
- inhibition in vivo at 50 mg/kg [1]: 1.6%

SMILES: CC(C)(C)c1cc(C=C2SCN(NCCO)C2=O)cc(C(C)(C)C)c1O [Example 55, 5-{[3,5-bis(1,1-dimethylethyl)-4-hydroxyphenyl]methylene}-3-[(2-hydroxyethyl)amino]-4-thiazolidinone]
- inhibition in vivo at 50 mg/kg [1]: 96.2%

SMILES: C=CCN1CSC(=Cc2cc(C(C)(C)C)c(O)c(C(C)(C)C)c2)C1=O [Example 24, 5-{[3,5-bis(1,1-dimethylethyl)-4-hydroxyphenyl]methylene}-3-(2-propenyl)-4-thiazolidinone]
- inhibition in vivo at 50 mg/kg [1]: 0%

SMILES: C#CCN(C)CCN1CSC(=Cc2cc(C(C)(C)C)c(O)c(C(C)(C)C)c2)C1=O [Example 31, 5-{[3,5-bis(1,1-dimethylethyl)-4-hydroxyphenyl]methylene}-3-[2-(methyl-2-propynylamino)ethyl]-4-thiazolidinone]
- inhibition in vivo at 50 mg/kg [1]: 28.9%
